Laboratory results taken from patent US9187471B2, “Pyrido [4,3-b] indole and pyrido [3,4-b] indole derivatives and methods of use” (Medivation Technologies, Inc., priority 2010, dated 2015).

Key:
[1] = biological target: T1, human recombinant dopamine D2L receptor (Homo sapiens, UniProt P14416); assay: Dopamine D2L radioligand binding ([3H]Spiperone); conditions: 0.16 nM [3H]Spiperone; for inhibition at 1 µM: read-out: Dopamine D2L (1 μM), percent inhibition of specific binding, compound at 1 μM; for inhibition at 0.1 µM: read-out: Dopamine D2L (0.1 μM), percent inhibition of specific binding, compound at 0.1 μM
T1 construct: expressed in transfected cells; host or cells: CHO
T1 sequence (P14416 whole entry): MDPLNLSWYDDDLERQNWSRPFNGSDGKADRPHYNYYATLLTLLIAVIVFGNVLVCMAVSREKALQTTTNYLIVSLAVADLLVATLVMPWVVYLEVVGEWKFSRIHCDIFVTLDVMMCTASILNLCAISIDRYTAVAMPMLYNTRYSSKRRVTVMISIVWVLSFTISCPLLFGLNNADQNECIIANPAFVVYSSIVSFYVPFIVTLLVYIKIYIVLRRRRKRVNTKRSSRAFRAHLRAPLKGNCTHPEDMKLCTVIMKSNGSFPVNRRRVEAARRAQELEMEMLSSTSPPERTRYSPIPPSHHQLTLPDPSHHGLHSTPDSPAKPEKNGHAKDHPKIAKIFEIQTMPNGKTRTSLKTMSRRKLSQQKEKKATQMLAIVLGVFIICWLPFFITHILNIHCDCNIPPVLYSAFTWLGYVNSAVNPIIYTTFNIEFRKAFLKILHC
Experimental: Non-specific binding was estimated in the presence of 10 μM Haloperidol. Receptor proteins were filtered and washed, the filters were then counted to determine [^3H]Spiperone specifically bound.

[2] = biological target: T2, human recombinant serotonin (5-Hydroxytryptamine) 5-HT2A receptor (Homo sapiens, UniProt P28223); assay: Serotonin 5-HT2A radioligand binding ([3H]Ketanserin); conditions: compound at 0.1 μM; read-out: Inhibition of ligand binding, Serotonin 5-HT2A (percent inhibition of specific binding)
T2 construct: expressed in transfected cells; host or cells: CHO-K1
T2 sequence (P28223 whole entry): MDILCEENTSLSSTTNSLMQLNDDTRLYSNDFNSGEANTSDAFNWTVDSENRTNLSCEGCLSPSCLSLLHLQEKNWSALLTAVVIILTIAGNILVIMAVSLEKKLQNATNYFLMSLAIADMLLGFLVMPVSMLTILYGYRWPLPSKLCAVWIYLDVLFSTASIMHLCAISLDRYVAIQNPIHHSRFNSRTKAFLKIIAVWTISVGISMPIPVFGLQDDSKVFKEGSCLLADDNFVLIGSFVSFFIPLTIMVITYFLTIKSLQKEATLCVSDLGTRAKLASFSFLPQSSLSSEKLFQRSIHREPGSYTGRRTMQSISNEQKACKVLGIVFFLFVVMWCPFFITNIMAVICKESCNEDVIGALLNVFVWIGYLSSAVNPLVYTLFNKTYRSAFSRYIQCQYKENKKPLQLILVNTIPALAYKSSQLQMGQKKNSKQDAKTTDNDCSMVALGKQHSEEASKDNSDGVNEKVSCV
Experimental: Compounds of the invention were incubated with 0.5 nM [^3H]Ketanserin for 60 min at 25° C. Non-specific binding was estimated in the presence of 1 μM Mianserin. Receptor proteins were filtered and washed, the filters were then counted to determine [^3H]Ketanserin specifically bound.

[3] = biological target: T3, rat adrenergic α1A receptor (Rattus norvegicus, UniProt P43140); assay: Adrenergic α1A radioligand binding ([3H]Prazosin); conditions: read-out: Adrenergic (0.1 μM) a1A, percent inhibition of specific binding; compound at 0.1 μM; 0.25 nM [3H]Prazosin
T3 construct: rat adrenergic α1A receptor obtained from Wistar Rat submaxillary glands; from tissue; host or cells: Wistar rat submaxillary glands
T3 sequence (P43140 1-466): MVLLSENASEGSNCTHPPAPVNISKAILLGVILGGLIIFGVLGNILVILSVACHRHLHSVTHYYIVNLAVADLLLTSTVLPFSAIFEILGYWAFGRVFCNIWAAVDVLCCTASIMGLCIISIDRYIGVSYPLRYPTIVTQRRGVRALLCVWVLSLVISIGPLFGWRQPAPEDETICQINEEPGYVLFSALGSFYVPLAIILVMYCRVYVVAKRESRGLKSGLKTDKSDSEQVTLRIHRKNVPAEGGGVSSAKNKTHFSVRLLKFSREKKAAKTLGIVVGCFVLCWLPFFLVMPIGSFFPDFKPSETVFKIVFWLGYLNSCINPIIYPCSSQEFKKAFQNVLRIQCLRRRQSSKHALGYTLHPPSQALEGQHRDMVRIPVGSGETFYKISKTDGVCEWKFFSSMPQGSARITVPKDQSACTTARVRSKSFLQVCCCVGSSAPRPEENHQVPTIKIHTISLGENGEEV
How it was run: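 Wistar rat submaxillary gland receptor in 50 mM Tris-HCl pH 7.4 with 0.5 mM EDTA, incubated with compound and 0.25 nM [3H]Prazosin for 60 min at 25 °C.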

| Structure (SMILES) | inhibition at 1 µM [1] [%] | inhibition at 0.1 µM [2] [%] | inhibition at 0.1 µM [3] [%] | inhibition at 0.1 µM [1] [%] |
| --- | --- | --- | --- | --- |
| Cc1ccc2c(c1)c1c(n2-c2cscc2-c2cnc(N(C)C)nc2)CCN(C)C1 [Compound 40] | 7 | 31 | 43 |  |
| Cc1ccc2c(c1)c1c(n2-c2ccc3ccncc3c2)CCN(C)C1 [Compound No. 74, 5-(isoquinolin-7-yl)-2,8-dimethyl-2,3,4,5-tetrahydro-1H-pyrido[4,3-b]indole] | 56 | 34 | 52 |  |
| Cc1ccc2c(c1)c1c(n2-c2ccc(-c3cccc4[nH]ncc34)cn2)CCN(C)C1 [Compound No. 147, 5-(5-(1H-indazol-4-yl)pyridin-2-yl)-2,8-dimethyl-2,3,4,5-tetrahydro-1H-pyrido[4,3-b]indole] | 33 | 62 | 37 |  |
| CNC(=O)c1ccc(-c2cscc2-n2c3c(c4cc(C)ccc42)CN(C)CC3)cn1 [Compound No. 73] | 21 | 64 | 71 |  |
| Cc1ccc2c(c1)c1c(n2-c2cscc2-c2cccc3[nH]ncc23)CCN(C)C1 [Compound 41] | 24 | 84 | 59 |  |
| Cc1csc(-c2ccccc2-n2c3c(c4cc(C)ccc42)CN(C)CC3)c1 [Compound 36] | 22 | 80 | -6 |  |
| Cc1ccc2c(c1)c1c(n2-c2ccc3cnccc3c2)CCN(C)C1 [Compound 38] | 53 | 84 | 36 |  |
| CNC(=O)c1cccc(-c2cscc2-n2c3c(c4cc(C)ccc42)CN(C)CC3)c1 [Compound No. 154] |  | 83 | 28 | 1 |
| Cc1ccc2c(c1)c1c(n2-c2cccc(-c3cn[nH]c3)c2)CCN(C)C1 [Compound No. 70, 5-(3-(1H-pyrazol-4-yl)phenyl)-2,8-dimethyl-2,3,4,5-tetrahydro-1H-pyrido[4,3-b]indole] | 15 | 98 | 5 |  |
| Cc1ccc2c(c1)c1c(n2-c2ccccc2-c2ccc(F)nc2)CCN(C)C1 [Compound No. 84, 5-(2-(6-fluoropyridin-3-yl)phenyl)-2,8-dimethyl-2,3,4,5-tetrahydro-1H-pyrido[4,3-b]indole] | 8 | 89 | 61 |  |
| Cc1ccc2c(c1)c1c(n2-c2cscc2-c2c(C)noc2C)CCN(C)C1 [Compound 62] | 16 | 68 | 9 |  |
| Cc1ccc2c(c1)c1c(n2-c2ccccc2-c2ccc(C)s2)CCN(C)C1 [Compound No. 81, 2,8-dimethyl-5-(2-(5-methylthiophen-2-yl)phenyl)-2,3,4,5-tetrahydro-1H-pyrido[4,3-b]indole] | 19 | 87 | 34 |  |
| Cc1ccc2c(c1)c1c(n2-c2cscc2-c2ccnn2C)CCN(C)C1 [Compound No. 150] |  | 53 | 36 | 5 |
| Cc1csc(-c2ccc(-n3c4c(c5cc(C)ccc53)CN(C)CC4)nc2)c1 [Compound No. 144, 2,8-dimethyl-5-(5-(4-methylthiophen-2-yl)pyridin-2-yl)-2,3,4,5-tetrahydro-1H-pyrido[4,3-b]indole] | 5 | 103 | 27 |  |
| Cc1ccc2c(c1)c1c(n2-c2cccc(-c3ccc(F)cc3)c2)CCN(C)C1 [Compound 61, 5-(4′-fluorobiphenyl-3-yl)-2,8-dimethyl-2,3,4,5-tetrahydro-1H-pyrido[4,3-b]indole] | 36 | 102 | -5 |  |
| Cc1ccc2c(c1)c1c(n2-c2cccc(-c3cnn(C)c3)c2)CCN(C)C1 [Compound 46, 2,8-dimethyl-5-(3-(1-methyl-1H-pyrazol-4-yl)phenyl)-2,3,4,5-tetrahydro-1H-pyrido[4,3-b]indole] | 20 | 84 | 16 |  |
| Cc1ccc2c(c1)c1c(n2-c2ccc3c(c2)CCN(C=O)C3)CCN(C)C1 [Compound No. 77, 6-(2,8-dimethyl-1,2,3,4-tetrahydro-pyrido[4,3-b]indol-5-yl)-3,4-dihydro-1H-isoquinoline-2-carbaldehyde] | 14 | 36 | 20 |  |
| Cc1ccc2c(c1)c1c(n2-c2ccc(-c3cccnc3)cn2)CCN(C)C1 [Compound No. 133, 5-(3,3′-bipyridin-6-yl)-2,8-dimethyl-2,3,4,5-tetrahydro-1H-pyrido[4,3-b]indole] | 11 | 86 | 21 |  |
| CNC(=O)c1cc(-n2c3c(c4cc(C)ccc42)CN(C)CC3)cs1 [Compound No. 78] | 1 | 59 | 16 |  |
| Cc1ccc2c(c1)c1c(n2-c2cccc(-c3cccn3C)c2)CCN(C)C1 [Compound No. 69, 2,8-dimethyl-5-(3-(1-methyl-1H-pyrrol-2-yl)phenyl)-2,3,4,5-tetrahydro-1H-pyrido[4,3-b]indole] | 12 | 99 | 8 |  |
| Cc1ccc2c(c1)c1c(n2-c2ccc(-c3sccc3C)cn2)CCN(C)C1 [Compound No. 148, 2,8-dimethyl-5-(5-(3-methylthiophen-2-yl)pyridin-2-yl)-2,3,4,5-tetrahydro-1H-pyrido[4,3-b]indole] | 17 | 95 | 20 |  |
| Cc1cc(C)c2c(c1)c1c(n2-c2cccc(-c3ccncc3)c2)CCN(C)C1 [Compound 57, 2,6,8-trimethyl-5-(3-(pyridin-4-yl)phenyl)-2,3,4,5-tetrahydro-1H-pyrido[4,3-b]indole] | 31 | 70 | 3 |  |
| Cc1ccc2c(c1)c1c(n2-c2cscc2-c2ccc(O)nc2)CCN(C)C1 [Compound 49] | 1 | 18 | 15 |  |
| CNC(=O)c1ccc(-c2cscc2-n2c3c(c4cc(C)ccc42)CN(C)CC3)cc1 [Compound No. 155] |  | 27 | 80 | 1 |
| CC(=O)Nc1ccc(-c2ccc(-n3c4c(c5cc(C)ccc53)CN(C)CC4)nc2)cn1 [Compound No. 139, N-(6′-(2,8-dimethyl-3,4-dihydro-1H-pyrido[4,3-b]indol-5(2H)-yl)-3,3′-bipyridin-6-yl)acetamide] | 16 | 64 | 22 |  |
| Cc1ccc2c(c1)c1c(n2-c2ccccc2-c2c(C)noc2C)CCN(C)C1 [Compound No. 82, 4-(2-(2,8-dimethyl-3,4-dihydro-1H-pyrido[4,3-b]indol-5(2H)-yl)phenyl)-3,5-dimethylisoxazole] | 9 | 73 | 3 |  |
| Cc1ccc2c(c1)c1c(n2-c2ccccc2-c2ccnn2C)CCN(C)C1 [Compound 32] | 10 | 59 | 27 |  |
| Cc1ccc2c(c1)c1c(n2-c2ccc(-c3cccc4ccccc34)cn2)CCN(C)C1 [Compound No. 141, 2,8-dimethyl-5-(5-(naphthalen-1-yl)pyridin-2-yl)-2,3,4,5-tetrahydro-1H-pyrido[4,3-b]indole] | 15 | 61 | 33 |  |
| Cc1ccc2c(c1)c1c(n2-c2ccc(-c3ccc(C)nc3)cn2)CCN(C)C1 [Compound No. 156, 2,8-dimethyl-5-(6′-methyl-3,3′-bipyridin-6-yl)-2,3,4,5-tetrahydro-1H-pyrido[4,3-b]indole] |  | 90 | 39 | -7 |
| Cc1ccc2c(c1)c1c(n2-c2cccc(-c3c(C)noc3C)c2)CCN(C)C1 [Compound No. 65, 4-(3-(2,8-dimethyl-3,4-dihydro-1H-pyrido[4,3-b]indol-5(2H)-yl)phenyl)-3,5-dimethylisoxazole] | 29 | 85 | 1 |  |
